Assay [1] deals with Schistosoma japonicum soluble inorganic pyrophosphatase (recombinant SjPPase) (Schistosoma japonicum). Kind of assay: crystal structure; X-ray crystal structures of apo-SjPPase (4QMB) and of SjPPase with Pi and cobalt ions (4QLZ); space group P32, two molecules in the asymmetric unit; first crystals from 0.2 M sodium malonate, 20% PEG 3,350, later optimised; protein at 16-18 mg/ml.

Assay [2] deals with T1, SjPPase (Schistosoma japonicum, UniProt Q5DE13).
T1 sequence (Q5DE13 1-287): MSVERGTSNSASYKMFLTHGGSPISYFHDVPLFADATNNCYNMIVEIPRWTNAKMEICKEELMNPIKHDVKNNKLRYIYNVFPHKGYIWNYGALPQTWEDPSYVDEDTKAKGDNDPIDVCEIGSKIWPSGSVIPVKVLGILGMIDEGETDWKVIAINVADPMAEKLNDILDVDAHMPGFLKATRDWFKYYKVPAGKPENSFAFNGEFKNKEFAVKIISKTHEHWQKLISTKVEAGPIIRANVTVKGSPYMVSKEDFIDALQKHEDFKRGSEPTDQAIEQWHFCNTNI
Briefly: Pi release, PiPer fluorescence phosphate assay. The assay is classed as biochemical. Details: homodimer; crystal residues 1-284 and 1-283. The following applies: 1 and 2 mM MDP; PPi substrate, Mg2+, 25 C.

For assay [3], the target named is T1, SjPPase. The settings on record: Co2+ bound; active site, P2 site (F intermediate).

Regarding “Schistosoma japonicum soluble inorganic pyrophosphatase (recombinant SjPPase) (enzyme)”, the stoichiometry N in assay [1] was 2.
As for `O=P(O)(O)CP(=O)(O)O` [methylene diphosphonic acid], at SjPPase [2], the inhibition entry was “inhibitors NaF and MDP inhibited the enzymatic activity of SjPPase”.
On to `O=P(O)(O)O` [orthophosphate], for which the “X-ray crystal structure, 2.33 A” value at SjPPase [3] is recorded as “the Pi in the SjPPase-Pi complex structure is at the P2 site”.

By stoichiometry N is commonly meant the number of molecules, sites or subunits per partner or assembly.

For the origin of these results see PMC8386120, “Crystal Structure of Inorganic Pyrophosphatase From Schistosoma japonicum Reveals the Mechanism of Chemicals and Substrate Inhibition” (Frontiers in Cell and Developmental Biology, 2021).
